Experimental data: US6531496B1 (Bayer Aktiengesellschaft, priority 1999, dated 2003)

test: logP by HPLC (EEC Directive 79/831 Annex V. A8, gradient method); format: physicochemical; conditions: HPLC, gradient method, acetonitrile/0.1% aqueous phosphoric acid; Table 1

| Structure (SMILES) | logP |
| --- | --- |
| COc1cc(C=CN2C(=O)c3ccccc3C2=O)ccc1OC1=NS(=O)(=O)CS1 (mixture of isomers) [Example 79] | 2.63 |
| O=[N+]([O-])c1ccc(C=Cc2cccc(OC3=NS(=O)(=O)CS3)c2)c([N+](=O)[O-])c1 (mixture of isomers) [Example 81] | 3.22 |
| O=[N+]([O-])c1ccc(C=Cc2cccc(OC3=NS(=O)(=O)CS3)c2[N+](=O)[O-])cc1 (mixture of isomers) [Example 85] | 3.28 |
| COc1cc(C=Cc2ccccc2)cc(OC2=NS(=O)(=O)CS2)c1 (mixture of isomers) [Example 87] | 3.62 |
| CCCCCC(O)c1cccc(OC2=NS(=O)(=O)CS2)c1 (racemic) [Example 82] | 2.87 |
| CON=C(C1=NOCCO1)c1ccccc1OC1=NS(=O)(=O)CS1 [Example 4] | 1.77 |
| O=S1(=O)CSC(Oc2ccccc2CC2=NOCCO2)=N1 [Example 6] | 1.69 |
| N#CCc1ccccc1OC1=NS(=O)(=O)CS1 [Example 8] | 1.68 |
| CON=C(C(=O)NCc1ccccc1)c1ccccc1OC1=NS(=O)(=O)CS1 [Example 9] | 2.13 |
| CON=C(C(=O)NOCc1ccccc1)c1ccccc1OC1=NS(=O)(=O)CS1 [Example 10] | 2.18 |
| CC(=NOCc1ccccc1)c1ccc(OC2=NS(=O)(=O)CS2)c(C)c1 [Example 18] | 3.92 |
| CC(C)n1nc(-c2ccc(OC3=NS(=O)(=O)CS3)cc2)ccc1=O [Example 19] | 2.15 |
| C=CCON=C(C)c1ccc(OC2=NS(=O)(=O)CS2)cc1 [Example 23] | 3.15 |
| CC(=NOCc1ccccc1)c1cccc(OC2=NS(=O)(=O)CS2)c1 [Example 25] | 3.67 |
| O=S1(=O)CSC(Oc2ccc(-c3nnco3)cc2)=N1 [Example 35] | 1.36 |
| CC(C)(C)ON=C(c1ccccc1)c1cccc(OC2=NS(=O)(=O)CS2)c1 [Example 43] | 4.4 |
| O=S1(=O)CSC(Oc2cccc(C(=NOCc3ccccc3)c3ccccc3)c2)=N1 [Example 44] | 4.15 |
| O=S1(=O)CSC(Oc2ccc(-c3nc4ccccc4o3)cc2)=N1 [Example 45] | 2.88 |

| Structure (SMILES) | logP |
| --- | --- |
| O=S1(=O)CSC(Oc2ccc(N=Nc3ccccc3)cc2)=N1 [Example 47] | 3.47 |
| O=S1(=O)CSC(Oc2ccc(N=Nc3ccccc3)cc2Cl)=N1 [Example 48] | 3.96 |
| O=[N+]([O-])c1ccc(/C=C/c2ccc(OC3=NS(=O)(=O)CS3)cc2)cc1 [Example 50] | 3.3 |
| O=S1(=O)CSC(Oc2ccc(N=Nc3ccccc3)cc2OC2=NS(=O)(=O)CS2)=N1 [Example 51] | 3.06 |
| O=S1(=O)CSC(Oc2cccc(C3=NOCCO3)c2)=N1 [Example 56] | 1.86 |
| Cc1cc(OC2=NS(=O)(=O)CS2)cc(C)c1SC#N [Example 60] | 2.55 |
| CN(C)N=Cc1ccc(OC2=NS(=O)(=O)CS2)cc1 [Example 61] | 2.16 |
| Cc1nc(Sc2ccc(OC3=NS(=O)(=O)CS3)cc2)sc1C [Example 62] | 2.91 |
| Cc1cnc(Sc2ccc(OC3=NS(=O)(=O)CS3)cc2)nc1C [Example 63] | 2.55 |
| CCN(CC)C(=O)c1ccc(OC2=NS(=O)(=O)CS2)c(NC)c1 [Example 64] | 2 |
| O=C(Cc1ccccc1)c1ccc(OC2=NS(=O)(=O)CS2)cc1 [Example 65] | 2.76 |
| O=C(C=Cc1ccccc1)c1ccc(OC2=NS(=O)(=O)CS2)cc1 [Example 67] | 3.06 |
| CSc1nnc(C(C)(C)C)c(=O)n1N=Cc1cccc(OC2=NS(=O)(=O)CS2)c1 [Example 69] | 3.43 |
| O=C(c1ccc(OC2=NS(=O)(=O)CS2)cc1)c1ccc(-c2ccccc2)cc1 [Example 70] | 3.72 |
| CCCCc1oc2ccccc2c1C(=O)c1ccc(OC2=NS(=O)(=O)CS2)cc1 [Example 71] | 4.28 |
| O=S1(=O)CSC(Oc2ccc(C3=Nc4ccccc4SC(c4ccccc4)C3)cc2)=N1 (centres unmarked) [Example 73] | 4.19 |
| O=S1(=O)CSC(Oc2ccc(S(=O)(=O)c3ccc(Cl)cc3)cc2)=N1 [Example 83] | 2.72 |
| Cc1cc(OC2=NS(=O)(=O)CS2)ccc1Sc1ccc([N+](=O)[O-])cc1C [Example 84] | 3.94 |

Further lines, results first:

| logP | Structure (SMILES) |
| --- | --- |
| 2.46 | CC(=Cc1cccc(OC2=NS(=O)(=O)CS2)c1)[N+](=O)[O-] (mixture of isomers) [Example 89] |
| 1.48 | CC(O)c1cccc(OC2=NS(=O)(=O)CS2)c1 (racemic) [Example 80] |
| 2.03 | COC=C(C(=O)OC)c1ccccc1OC1=NS(=O)(=O)CS1 [Example 5] |
| 1.7 | COC(=O)C(=NOCC#N)c1ccccc1OC1=NS(=O)(=O)CS1 [Example 7] |
| 1.33 | CON=C(C(N)=O)c1ccccc1OC1=NS(=O)(=O)CS1 [Example 11] |
| 2.88 | CON=C(C)c1ccc(OC2=NS(=O)(=O)CS2)c(C)c1 [Example 16] |
| 3.32 | CCON=C(C)c1ccc(OC2=NS(=O)(=O)CS2)c(C)c1 [Example 17] |
| 2.43 | CON=C(C)c1cc(OC2=NS(=O)(=O)CS2)ccc1OC1=NS(=O)(=O)CS1 [Example 30] |
| 1.93 | COC(=O)c1ccc(OC2=NS(=O)(=O)CS2)cc1C(=O)OC [Example 32] |
| 2.66 | CC(C)(C)c1cc(OC2=NS(=O)(=O)CS2)ccc1O [Example 34] |
| 1.79 | CCOC(=O)NN=Cc1cccc(OC2=NS(=O)(=O)CS2)c1 [Example 36] |
| 1.59 | N#CC(C#N)=Cc1cccc(OC2=NS(=O)(=O)CS2)c1 [Example 38] |
| 1.23 | O=S1(=O)CSC(Oc2cccc(CO)c2)=N1 [Example 46] |
| 2.43 | COC(=O)Nc1ccc(C=Cc2cccc(OC3=NS(=O)(=O)CS3)c2)c(NC(=O)OC)c1 [Example 49] |
| 3.39 | Cc1cc(OC2=NS(=O)(=O)CS2)ccc1SC(F)(F)F [Example 52] |
| 2.33 | CN=Cc1ccc(OC2=NS(=O)(=O)CS2)cc1 [Example 53] |
| 2.75 | CSc1ccc(OC2=NS(=O)(=O)CS2)cc1C [Example 54] |
| 2.01 | N#CSCC(=O)c1ccc(OC2=NS(=O)(=O)CS2)cc1 [Example 55] |
| 2.04 | CCC(=O)c1ccccc1OC1=NS(=O)(=O)CS1 [Example 57] |
| 1.88 | COc1cc(OC2=NS(=O)(=O)CS2)ccc1C(C)=O [Example 58] |
| 1.54 | CCS(=O)(=O)c1ccc(OC2=NS(=O)(=O)CS2)cc1 [Example 59] |
| 2.67 | COc1ccc(C(=O)c2ccc(OC3=NS(=O)(=O)CS3)cc2)cc1 [Example 66] |
| 1.59 | COC(=O)c1ccc(N=Cc2ccc(OC3=NS(=O)(=O)CS3)cc2)cc1 [Example 68] |
| 1.86 | CCOC(=O)NN=C(C)c1ccc(OC2=NS(=O)(=O)CS2)cc1 [Example 72] |
| 1.95 | CC(=O)c1cc(OC2=NS(=O)(=O)CS2)cc([N+](=O)[O-])c1 [Example 74] |
| 1.83 | COc1ccc(C(C)=O)c(OC2=NS(=O)(=O)CS2)c1 [Example 75] |
| 1.61 | COC(=O)c1ccc(N=Cc2cccc(OC3=NS(=O)(=O)CS3)c2)cc1 [Example 76] |

same assay, conditions: gradient of acetonitrile/0.1% aqueous phosphoric acid; HPLC, gradient method, acetonitrile/0.1% aqueous phosphoric acid; Table 1

| chromatographic logP | Structure (SMILES) |
| --- | --- |
| 2.98 | CC(C)(CCl)C(=O)Nc1ccc(OC2=NS(=O)(=O)CS2)c(Cl)c1Cl [Example 13] |
| 2.65 | CO/N=C(/C)c1cccc(OC2=NS(=O)(=O)CS2)c1 [Example 26] |
